Test results as given in US10865218B2, “Fluoride fluorescence probe” (The Procter & Gamble Company, priority 2017, dated 2020).

Tests used:
[1] = Fluoride ion sensing: fluorescence and absorption spectra of the probes with NaF; type: physicochemical; conditions: probe alone, before F^−
Experimental: The procedure for fluoride ion sensing is described. Stock solutions of inventive compounds R1-R3 (1 mM) are prepared in DMSO. The test solutions of the inventive compounds R1-R3 (10 μM) in […] DMSO-HEPES solution (3/2, v/v, 10 mM HEPES, pH=7.2) are prepared by placing stock solutions in 10-mL volumetric flask, and diluting with buffer solution. The resulting solutions are shaken well and incubated at room temperature for 50 minutes before recording the spectra.
Sodium fluoride (NaF) is used as a fluoride source for the fluoride ion sensing test. Stock solution of NaF (1 mM) is prepared in deionized water. The test solutions of the inventive compounds R1-R3 (10 μM) with NaF (500 μM) are prepared by placing stock solutions in 10-mL volumetric flask, and diluting with buffer solution. The resulting solutions are shaken well and incubated at room temperature for 50 minutes before recording the spectra.
UV-visible spectra are recorded on a Shimadzu UV-2550 spectrometer. Steady-state emission experiments at room temperature are measured on an Edinburgh instrument FLS-920 spectrometer with a Xe lamp as an excitation source. Unless otherwise noted, for all measurements, the excitation wavelength is 620 nm and the emission wavelength is collected from 640 to 780 nm.
The color changed from colorless to blue, which can be visible by naked eyes. The reaction mechanism is further confirmed by HR-MS analysis in aqueous solution. After treated with NaF, a new peak is appeared in the solution with almost the same HR-MS data for the three compounds (R1: 284.1214; R2: 284.1202; R3: 284.1209), which is nearly identical to the theoretical molecular mass of the MB ([M−Cl^−]^+=284.1216).

[2] = Fluorescence intensity change with pH variation; type: physicochemical; conditions: 10 μM, before NaF
Text: Fluorescence change of inventive compound R3 before/after treated with NaF under different pH levels are described.

| SMILES | absorption and emission in visible range [1] | pH range in which the compound remains stable [2] |
| --- | --- | --- |
| CN(C)c1ccc2c(c1)Sc1cc(N(C)C)ccc1N2C(=O)OCc1ccc(O[Si](C)(C)C(C)(C)C)cc1 [Compound R3, 4-((tert-butyldimethylsilyl)oxy)benzyl 3,7-bis(dimethylamino)-10H-phenothiazine-10-carboxylate] | no absorption and emission in visible range | 2-12 |
| CN(C)c1ccc2c(c1)Sc1cc(N(C)C)ccc1N2C(=O)OCc1ccc(O[Si](c2ccccc2)(c2ccccc2)C(C)(C)C)cc1 [Compound R1, 4-((tert-butyldiphenylsilyl)oxy)benzyl 3,7-bis(dimethylamino)-10H-phenothiazine-10-carboxylate] | no absorption and emission in visible range |  |
| CC(C)[Si](Oc1ccc(COC(=O)N2c3ccc(N(C)C)cc3Sc3cc(N(C)C)ccc32)cc1)(C(C)C)C(C)C [Compound R2, 4-((triisopropylsilyl)oxy)benzyl 3,7-bis(dimethylamino)-10H-phenothiazine-10-carboxylate] | no absorption and emission in visible range |  |
